The nature of the assay: HCV replicon assay (luciferase reporter, ET cell line). Type of assay: cell-based. Conditions: Hepatitis C virus, HCV replicon luciferase activity in ET cells. On the procedure: A cell line, ET (Huh-lucubineo-ET) is used for screening of compounds for inhibiting HCV RNA dependent RNA polymerase. The ET cell line is stably transfected with RNA transcripts harboring a I389 luc-ubi-neo/NS3-3′/ET; replicon with firefly luciferase-ubiquitin-neomycin phosphotransferase fusion protein and EMCV-IRES driven NS3-5B polyprotein containing the cell culture adaptive mutations (E1202G; T1280I; K1846T) (Krieger at al, 2001 and unpublished). The ET cells are grown in DMEM (Dulbeco's Modified Eagle's Medium), supplemented with 10% fetal calf serum, 2 mM Glutamine, Penicillin (100 IU/mL)/Streptomycin (100 μg/mL), 1× nonessential amino acids, and 250 μg/mL G418 (“Geneticin”). They are all available through Life Technologies (Bethesda, Md.). The cells are plated at 0.5−1.0×10^4 cells/well in the 96 well plates and incubated for 24 hrs before adding test compound. The compounds are added to the cells to achieve a final concentration of 0.1 nM to 50 μm and a final DMSO (dimethylsulfoxide) concentration of 0.5%. Luciferase activity is measured 48-72 hours later by adding a lysis buffer and the substrate (Catalog number Glo-lysis buffer E2661 and Bright-Glo luciferase system E2620 Promega, Madison, Wis.). Cells should not be too confluent during the assay. Percent inhibition of replication data is plotted relative to no compound control. Under the same condition, cytotoxicity of the compounds are determined using cell proliferation reagent, WST-1 (Roche, Germany). The compounds showing antiviral activities, but no significant cytotoxicities are chosen to determine EC50 and TC50. For these determinations, a 10 point, 2-fold serial dilution for each compound was used, which spans a concentration range of 1000 fold. EC50 and similarly TC50 values were calculated by fitting % inhibition at each concentration to the following equation:
% inhibition=100%/[(EC50/[I])^b+1]
where b is Hill's coefficient.
% inhibition values at a specific concentration, […] for example, can also be derived from the equation above.
In turn, `O=C(NCc1ccc(Cl)s1)c1nn2c(C(F)(F)F)cc(-c3ccccc3)cc2c1Cl` [Compound 123, 3-Chloro-5-phenyl-7-trifluoromethyl-pyrazolo[1,5-a]pyridine-2-carboxylic Acid (5-chloro-thiophen-2-ylmethyl)-amide] gave an inhibition at 10 µM of 46.1%.

`O=C(NCc1ccco1)c1cc2cc(-c3ccccc3)cc(I)n2n1` [Compound 124, 7-Iodo-5-phenyl-pyrazolo[1,5-a]pyridine-2-carboxylic Acid (furan-2-ylmethyl)-amide] yielded an inhibition at 10 µM of 54.3%.

`O=C(NCCc1cccs1)c1cc2cc(-c3ccccc3)cc(I)n2n1` [Compound 125, 7-Iodo-5-phenyl-pyrazolo[1,5-a]pyridine-2-carboxylic Acid (2-thiophen-2-yl-ethyl)-amide] showed an inhibition at 10 µM of 48%.

As to `O=C(NCc1ccccc1F)c1cc2cc(-c3ccccc3)cc(I)n2n1` [Compound 128, 7-Iodo-5-phenyl-pyrazolo[1,5-a]pyridine-2-carboxylic Acid 2-fluoro-benzylamide], the inhibition at 10 µM was determined as 65.2%.

Compound `O=C(NCc1ccccc1)c1cc2cc(-c3ccccc3)cc(I)n2n1` [Compound 129, 7-Iodo-5-phenyl-pyrazolo[1,5-a]pyridine-2-carboxylic Acid benzylamide] had an inhibition at 10 µM of 43%.

Compound `O=C(NCCc1ccccc1)c1cc2cc(-c3ccccc3)cc(I)n2n1` [Compound 130, 7-Iodo-5-phenyl-pyrazolo[1,5-a]pyridine-2-carboxylic Acid phenethyl-amide] yielded an inhibition at 10 µM of 32.3%.

`O=C(NCC1CCCO1)c1cc2cc(-c3ccccc3)cc(I)n2n1` (stereo not drawn) [Compound 131, 7-Iodo-5-phenyl-pyrazolo[1,5-a]pyridine-2-carboxylic Acid (tetrahydro-furan-2-ylmethyl)-amide] gave an inhibition at 10 µM of 49.2%.

`O=C(NCc1cccs1)c1cc2cc(-c3ccco3)cc(C(F)(F)Cl)n2n1` [Compound 133, 7-(Chloro-difluoro-methyl)-5-furan-2-yl-pyrazolo[1,5-a]pyridine-2-carboxylic Acid (thiophen-2-ylmethyl)-amide] had an inhibition at 10 µM of 99.8%.

Compound `O=C(NCc1cccs1)c1cn2cc(-c3ccccc3)cc(C(F)(F)F)c2n1` [Compound 137, 6-Phenyl-8-trifluoromethyl-imidazo[1,2-a]pyridine-2-carboxylic Acid (thiophen-2-ylmethyl)-amide] gave an inhibition at 10 µM of 63%.

The compound `O=C(NCc1cccs1)c1cn2cc(-c3ccco3)cc(C(F)(F)F)c2n1` [Compound 138, 6-Furan-2-yl-8-trifluoromethyl-imidazo[1,2-a]pyridine-2-carboxylic Acid (thiophen-2-ylmethyl)-amide] came in with an inhibition at 10 µM of 92.1%.

The compound `O=C(NCc1cccs1)c1nc2c(C(F)(F)F)cc(-c3ccccc3)cn2c1Br` [Compound 139, 3-Bromo-6-phenyl-8-trifluoromethyl-imidazo[1,2-a]pyridine-2-carboxylic Acid (thiophen-2-ylmethyl)-amide] had an inhibition at 10 µM of 97.9%.

Compound `O=C(NCc1cccs1)c1cc2cc(-c3ccco3)cc(Cl)n2n1` [Compound 145, 7-Chloro-5-furan-2-yl-pyrazolo[1,5-a]pyridine-2-carboxylic Acid (thiophen-2-ylmethyl)-amide] came in with an inhibition at 10 µM of 49.8%.

For `CN(Cc1cccs1)C(=O)c1cn2cc(-c3ccco3)cc(C(F)(F)F)c2n1` [Compound 146, 6-Furan-2-yl-8-trifluoromethylimidazo[1,2-a]pyridine-2-carboxylic Acid Methyl-thiophen-2-ylmethyl-amide], the inhibition at 10 µM worked out at 35.1%.

`CN(Cc1cccs1)C(=O)c1cc2cc(-c3ccccc3)cc(C(F)(F)F)n2n1` [Compound 147, 5-phenyl-7-trifluoromethyl-pyrazolo[1,5-a]pyridine-2-carboxylic Acid methyl-thiophen-2-ylmethyl-amide] had an inhibition at 10 µM of 26.8%.

`O=C(NCc1cccs1)c1cc2cc(-c3ccccc3)cc(N3CCOCC3)n2n1` [Compound 148, 7-Morpholin-4-yl-5-phenyl-pyrazolo[1,5-a]pyridine-2-carboxylic Acid (thiophen-2-ylmethyl)-amide] yielded an inhibition at 10 µM of 27.7%.

For `CN(C)c1cc(-c2ccccc2)cc2cc(C(=O)NCc3cccs3)nn12` [Compound 150, 7-dimethylamino-5-phenyl-pyrazolo[1,5-a]pyridine-2-carboxylic Acid (thiophen-2-ylmethyl)-amide], the inhibition at 10 µM was 43.5%.

As for `O=C(NCc1cccs1)c1nc2c(C(F)(F)F)cc(-c3ccco3)cn2c1Cl` [Compound 152, 3-Chloro-6-furan-2-yl-8-trifluoromethyl-imidazo[1,2-a]pyridine-2-carboxylic acid (thiophen-2-ylmethyl)-amide], the inhibition at 10 µM worked out at 92.5%.

In turn, `O=C(NCc1cccs1)c1cc2cc(-c3ccccc3)cc(NCCO)n2n1` [Compound 154, 7-(2-Hydroxy-ethylamino)-5-phenyl-pyrazolo[1,5-a]pyridine-2-carboxylic acid (thiophen-2-ylmethyl)-amide] returned an inhibition at 10 µM of 58.8%.

As to `Cc1c(C(=O)NCc2cccs2)nc2c(C(F)(F)F)cc(-c3ccco3)cn12` [Compound 156, 6-Furan-2-yl-3-methyl-8-trifluoromethyl-imidazo[1,2-a]pyridine-2-carboxylic acid (thiophen-2-ylmethyl)-amide], the inhibition at 10 µM came out at 89.3%.

The compound `O=C(NCc1cccs1)c1nc2c(C(F)(F)F)cc(-c3ccoc3)cn2c1Cl` [Compound 157, 3-Chloro-6-furan-3-yl-8-trifluoromethyl-imidazo[1,2-a]pyridine-2-carboxylic acid (thiophen-2-ylmethyl)-amide] came in with an inhibition at 10 µM of 97.8%.

`O=C(NCc1ccco1)c1nc2c(C(F)(F)F)cc(-c3ccco3)cn2c1Cl` [Compound 158, 3-Chloro-6-furan-2-yl-8-trifluoromethyl-imidazo[1,2-a]pyridine-2-carboxylic acid (furan-2-ylmethyl)-amide] registered an inhibition at 10 µM of 88.5%.

With `O=C(NCc1ccoc1)c1nc2c(C(F)(F)F)cc(-c3ccco3)cn2c1Cl` [Compound 159, 3-Chloro-6-furan-2-yl-8-trifluoromethyl-imidazo[1,2-a]pyridine-2-carboxylic acid (furan-3-ylmethyl)-amide], at 10 µM the inhibition was 94.8%.

`O=C(NCc1cccs1)c1nc2c(C(F)(F)F)cc(-c3ccsc3)cn2c1Cl` [Compound 160, 3-Chloro-6-thiophen-3-yl-8-trifluoromethyl-imidazo[1,2-a]pyridine-2-carboxylic acid (thiophen-2-ylmethyl)-amide]: the inhibition at 10 µM is 97.3%.

In the case of `CC(NC(=O)c1nc2c(C(F)(F)F)cc(-c3ccco3)cn2c1Cl)c1cccs1` (stereo not drawn) [Compound 162, 3-Chloro-6-furan-2-yl-8-trifluoromethyl-imidazo[1,2-a]pyridine-2-carboxylic acid (1-thiophen-2-yl-ethyl)-amide], 10 µM produced 44.2% inhibition.

Compound `O=C(NCc1ccccn1)c1nc2c(C(F)(F)F)cc(-c3ccco3)cn2c1Cl` [Compound 163, 3-Chloro-6-furan-2-yl-8-trifluoromethyl-imidazo[1,2-a]pyridine-2-carboxylic acid (pyridin-2-ylmethyl)-amide] displayed an inhibition at 10 µM of 95.4%.

Regarding `O=C(NCc1cccnc1)c1nc2c(C(F)(F)F)cc(-c3ccco3)cn2c1Cl` [Compound 164, 3-Chloro-6-furan-2-yl-8-trifluoromethyl-imidazo[1,2-a]pyridine-2-carboxylic acid (pyridin-3-ylmethyl)-amide], the inhibition at 10 µM was determined as 70.1%.

Compound `COC(=O)C(NC(=O)c1nc2c(C(F)(F)F)cc(-c3ccco3)cn2c1Cl)c1cccs1` (stereo not drawn) [Compound 166, [(3-Chloro-6-furan-2-yl-8-trifluoromethyl-imidazo[1,2-a]pyridine-2-carbonyl)-amino]-thiophen-2-yl-acetic acid methyl ester] came in with an inhibition at 10 µM of 49.1%.

Turning to `O=C(NCC1CC1)c1nc2c(C(F)(F)F)cc(-c3ccco3)cn2c1Cl` [Compound 169, 3-Chloro-6-furan-2-yl-8-trifluoromethyl-imidazo[1,2-a]pyridine-2-carboxylic acid cyclopropylmethyl-amide], 10 µM produced 50.3% inhibition.

The compound `O=C(NCC1CCCCC1)c1nc2c(C(F)(F)F)cc(-c3ccco3)cn2c1Cl` [Compound 170, 3-Chloro-6-furan-2-yl-8-trifluoromethyl-imidazo[1,2-a]pyridine-2-carboxylic acid cyclohexylmethyl-amide] came in with an inhibition at 10 µM of 58%.

With `O=C(NC(C(=O)NCCCN1CCOCC1)c1cccs1)c1nc2c(C(F)(F)F)cc(-c3ccco3)cn2c1Cl` (stereo not drawn) [Compound 171, 3-Chloro-6-furan-2-yl-8-trifluoromethyl-imidazo[1,2-a]pyridine-2-carboxylic acid [(3-morpholin-4-yl-propylcarbamoyl)-thiophen-2-yl-methyl]-amide], the inhibition at 10 µM was found to be 99.4%.

Values taken from patent US20120121540A1 (priority 2007, published 2012).
